Assay results: PubChem BioAssay (NCI)
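A five-concentration, 48-hour dose response in 96-well plates underlies each endpoint, interpolated linearly between surrounding concentrations. TGI marks complete inhibition of growth.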 Where a SMILES comes first, the peptide text is derived from it. [ ]: non-standard residue; d: D form. The star is where a group is joined. Cbz = O=C(OCc1ccccc1)*; Aib = CC(C)(N)C(=O)O

Tests used:
Assay in all cases: NCI anticancer screen, dose series, 48 h
COLO 205 colon = test system: COLO 205 colon
HOP-62 NSCLC = test system: HOP-62 NSCLC
MDA-N = test system: MDA-N
SF-539 CNS = test system: SF-539 CNS
A549 NSCLC = test system: A549 NSCLC
U251 CNS = test system: U251 CNS
IGROV1 ovarian = test system: IGROV1 ovarian
SN12C renal = test system: SN12C renal
OVCAR-4 ovarian = test system: OVCAR-4 ovarian
RPMI-8226 leukemia = test system: RPMI-8226 leukemia

SMILES | TGI (COLO 205 colon) [µM] | TGI (HOP-62 NSCLC) [µM] | TGI (MDA-N) [µM] | TGI (SF-539 CNS) [µM] | TGI (A549 NSCLC) [µM] | TGI (U251 CNS) [µM] | TGI (IGROV1 ovarian) [µM] | TGI (SN12C renal) [µM] | TGI (OVCAR-4 ovarian) [µM] | TGI (RPMI-8226 leukemia) [µM]
O=C(O)c1cccc(S(=O)(=O)NN2C(=O)CSC2c2c(O)ccc3ccccc23)c1 (centres undefined) | > 100 | > 100 | > 100 | 55.8 | > 100 | > 100 | 45.1 | > 100 | 83 | 
CC1C(c2ccccc2)NC(c2ccccc2)CC1(N)C#N (centres undefined) | > 100 | > 100 | > 100 | > 100 | > 100 | > 100 | > 100 | > 100 | > 100 | 
COc1ccc(C2=NN(c3nsc4ccccc34)C(=O)CC2)cc1 | > 100 | > 100 |  | > 100 | > 100 | > 100 | > 100 | > 100 | > 100 | > 100
c1ccc(OCc2nnc(CCCCCCCCc3nnc(COc4ccccc4)o3)o2)cc1 | > 100 | > 100 | > 100 | > 100 | > 100 | > 100 | > 100 | > 100 | > 100 | 
Nc1c(C(=O)O)nnc2cc(Cl)ccc12 | > 100 | > 100 | > 100 | > 100 | > 100 | > 100 | > 100 | > 100 | > 100 | 
CSc1nc(-c2ccccc2)nc(=[N+]2CCOCC2)s1 | 98.7 | > 100 |  | > 100 | > 100 | > 100 | > 100 | > 100 | > 100 | 
Nc1ncc2c(n1)-c1ccccc1OC2 | > 100 | > 100 |  | > 100 | > 100 | > 100 | > 100 | > 100 | > 31.6 | > 100
C=C(Cl)CN1c2ccccc2C=Cc2ccccc21 | 30.4 | 89.9 | 64.1 | 75.2 | > 100 | 30.9 | > 100 | 57.3 | 97.9 | 
CCCCCCCCCCCCCCCCCCNc1nc(=O)n(C2CC(OP(=O)(O)OCC3OC(n4cc(F)c(=O)[nH]c4=O)CC3O)C(CO)O2)cc1F (centres undefined) | > 100 | > 100 |  | 43.9 | > 100 | 65.2 | > 100 | > 100 | > 100 | 49.7
O=S(=O)(O)c1cc(N=[N+]([O-])c2ccc(N=Nc3ccccc3)cc2S(=O)(=O)O)ccc1/C=C/c1ccc(N=[N+]([O-])c2ccc(N=Nc3ccccc3)cc2S(=O)(=O)O)cc1S(=O)(=O)O | > 100 | > 100 |  | > 31.6 | > 100 | > 100 | > 100 | > 100 | > 100 | > 100
CCOC(=O)C1=C(C)N(Cc2ccccc2)C2(O)C(OC)CC(=O)C3C(=O)N(c4ccccc4)C(=O)C132 (centres undefined) | > 100 | > 100 |  | 48.6 | > 100 | > 100 | 37.6 | 41.5 | 18.4 | > 100
CC(C)(NC(=O)C(C)(C)NC(=O)OCc1ccccc1)C(=O)O (Cbz-[Aib]-[Aib]-OH) |  | > 100 | > 100 | > 100 | > 100 | > 100 | > 100 | > 100 | > 100 | > 100
CCc1n[nH]c(=O)[nH]1 | > 100 | > 100 | > 100 | > 100 | > 100 |  | > 100 | > 100 |  | 
O=c1onc(Nc2ccccc2)n1-c1ccccc1 | > 100 | > 100 | > 100 | > 100 | > 100 | > 100 | > 100 | > 100 | > 100 | 
COc1cc(-c2nc(SC)nc3c2CCc2ccccc2-3)cc(OC)c1OC | > 100 | > 100 |  | > 100 | > 100 | > 100 | > 100 | > 100 | > 100 | 68.8
COc1ccc(C2=Nc3c(nc(SC)[nH]c3=O)NC(c3ccccc3)C2)cc1 (centres undefined) | 34.8 | > 100 | 35.4 | 37.3 | 66.5 | 36.4 | 55.6 | 47.2 |  | 62
Cc1ccc(S(=O)(=O)N/N=C\c2c3ccccc3[n+](C)c3ccccc23)cc1 |  | > 100 |  | 54 | > 100 | 71.3 | > 100 | > 100 | > 100 | > 100
